Data taken from US11466020B2, “Compounds and compositions for inhibition and elimination of Zika infection and uses for same” (Cornell University, priority 2017, dated 2022).
Structures can show the parent of a compound that is named as a salt.

Tested on: ZIKV MR766
Assay: Elimination of ZIKV from infected hNPCs (drug applied 2 h post infection, 3 days drug, 3 days drug-free)
Assay type: cell-based, Zika virus
Conditions: for ZIKV infection of hNPCs at day 6: 3 days treatment followed by 3 days culture without drug; for ZIKV infection rate of hNPCs at day 3: day 3 of treatment
Experimental: (A) Scheme to evaluate the elimination of ZIKV. At day 0, hNPCs were infected with ZIKV for 2 h. After removal of ZIKV infection medium, hNPCs were treated with drug candidates. At day 3, the culture medium was changed to fresh medium without compounds. The cells were maintained in drug-free culture until day 6 and used for immunohistochemistry and qRT-PCR. (B and C) Inhibitory curve and IC50 of HH calculated based on the infection rate (B) and normalized cell viability (C) (n=6). (D and E) Immunocytochemistry analysis (D) and the quantification of infection rate, cell apoptosis rate, and total cell number (E) of hNPCs on day 3 and day 6. Cells was fixed and stained with cleaved Caspase-3 (CAS3), ZIKV E and DAPI. Scale bars, 100 μm. (F) qRT-PCR analysis to monitor the total ZIKV vRNA in the supernatant of hNPC cultures on day 6. Scale bars, 200 μm. (n=3). (G) Vero cell reinfection assay to monitor the infective ZIKV vRNA in the supernatant of hNPC cultures at day 6 after ZIKV infection. Scale bars, 200 μm. (n=3). (H) Quantification of ZIKV infectious particles produced by ZIKV-infected hNPCs at day 6 by the Vero cell reinfection assay. (I) hNPCs with or without ZIKV infection treated with HH maintain hNPC marker expression and differentiation capacity. hNPCs with or without ZIKV MR766 infection were treated with 25 μM HH or DMSO for 3 days and then stained for SOX2, NESTIN and with DAPI. hNPCs with or without ZIKV infection and treated with HH or DMSO for 3 days were differentiated to cortical neurons. The cortical neurons were then fixed and stained for MAP2, TUJ1 and with DAPI. Scale bars, 100 μm. (n=3). (J) ZIKV (MR766 strain) dynamics in hNPCs. qRT-PCR analysis to quantify the total and replicating (−) strand vRNAs in the hNPCs at different time points post infection. […] (K) qRT-PCR analysis of hNPCs, on which 25 μM HH or DMSO were added at 24 h, 36 h and 48 h post-ZIKV (MR766 strain) infection and maintained for additional 3 days. p values were calculated by unpaired two-tailed Student's t-test. *p<0.05, **p<0.01 and ***p<0.001, if not mentioned specifically.
HH eliminates virus from ZIKV infected hNPCs. To determine whether the drug candidates are capable of eliminating ZIKV in previously infected hNPCs, HH or AQ was applied 2 h post ZIKV infection (FIG. 2A).
ZIKV-infected hNPCs were treated with HH or AQ for 3 days, followed by 3 days culture in drug-free medium. Immunocytochemical analysis of ZIKV E, cleaved-caspase-3 (CAS3) and DAPI were performed at day 0 (just before ZIKV infection), day 3, and day 6 to measure the ZIKV infection rate, cell death rate and total cell numbers, respectively. […] In addition, neither ZIKV vRNA, as indicated by qRT-PCR (FIG. 2F), or production of infectious ZIKV, as indicated by a Vero cell re-infection assay, was detected in day 6 supernatant of HH-treated conditions (FIGS. 2G and 2H). […] In contrast, hNPCs without HH treatment underwent significant cell death after 3 days of ZIKV infection, and there were no cells detected after cortical neuron differentiation (data not shown).
Generation of inhibitory curves. hNPCs were plated on 96-well plates with Accutase digestion at 8.5×10^4/cm^2 density and incubated overnight. For generating inhibitory curves of compound for inhibiting ZIKV infection, cells were first treated with DMSO or different doses of hit compounds for 1 h before ZIKV infection. The cells were then infected with ZIKV MR766 at a MOI=0.125. After 2 h of infection, the virus-containing medium was replaced by fresh virus-free medium and compounds were added again to the same wells. For generating inhibitory curves of compound for eliminating ZIKV, compounds were instead added after ZIKV infection. After 3 days incubation, the cells were fixed and stained for ZIKV envelope protein (ZIKV E) and DAPI was used to stain cell nuclei. Plates were analyzed with the ImageXpress^MICRO Automated High-Content Analysis System. IC50 was calculated using MasterPlex Reader Fit 2010.

[1] = compound applied 2 h post ZIKV infection

Compound	ZIKV infection of hNPCs at day 6	elimination of ZIKV infection in previously infected hNPCs [1]	ZIKV infection rate of hNPCs at day 3	IC50 for eliminating versus inhibiting ZIKV [1]
CCN(CC)Cc1cc(Nc2ccnc3cc(Cl)ccc23)ccc1O [AQ, amodiaquine dihydrochloride dihydrate]	comparable to the level of infection in the DMSO control condition	capable of eliminating ZIKV infection	undetectable levels	–
CN1CCC2=C[C@H](O)[C@H]3OC(=O)c4cc5c(cc4[C@H]3[C@@H]21)OCO5 [HH, hippeastrine hydrobromide]	remained undetectable	capable of eliminating ZIKV infection	undetectable levels	comparable IC50 values
